# Data: PMC6508583 (Journal of the American Chemical Society, 2019)
# Values joined by “and” are separate entries in the source; they are usually repeats but may differ in a detail not shown here. Equal entries are not always repeated.
# Columns and labels:
# [1] = test system: NIH 3T3 mouse embryonic fibroblast cells; type: cell-based
# E. coli [2] = test: Antibacterial activity against reference strains: E. coli; details: for Antibacterial activity (MIC) E. coli AG001: strain AG001; for Antibacterial activity (MIC) E. coli AG003: strain AG003 carries the AAC(3) gene
# A. baumannii = test: Antibacterial activity against reference strains: A. baumannii; type: cell-based; details: strain AG225
# MRSA = test: Antibacterial activity against reference strains: MRSA; type: cell-based; details: for Antibacterial activity (MIC) MRSA AG038: strain AG038; for Antibacterial activity (MIC) MRSA AG042: strain AG042 carries the AAC(6)’, ANT(4’,4’’) and APH(3’) genes
# [3] = test system: E. coli carrying specific resistance determinants; test: Activity against wild-type and engineered E. coli carrying specific AMEs or RMTs; type: cell-based; details: for Activity (MIC) E. coli AG006: strain AG006, WT; for Activity (MIC) E. coli AG007: strain AG007, AAC(3); for Activity (MIC) E. coli AG008: strain AG008, ANT(2’’); for Activity (MIC) E. coli AG009: strain AG009, AAC(6’); for Activity (MIC) E. coli AG036: strain AG036, ANT(4′,4′′); for Activity (MIC) E. coli AG103: strain AG103, armA; for Activity (MIC) E. coli AG105: strain AG105, AAC(2′); for Activity (MIC) E. coli AG166: strain AG166, APH(3′)
# K. pneumoniae = test: Antibacterial activity against reference strains: K. pneumoniae; type: cell-based; details: strain AG215
# [4] = test system: A1555G mutant mitochondrial hybrid ribosome; type: biochemical, human; details: for Selectivity A1555G: A1555G over wt bacterial ribosome; for IC50 A1555G: in vitro translation inhibition, A1555G mutant mitochondrial hybrid ribosome
# [5] = test system: wild-type bacterial ribosome; test: Cell-free translation assay, wild-type bacterial ribosome; type: biochemical; details: in vitro translation inhibition
# [6] = test system: Mit13 hybrid ribosome (decoding A site of the human mitochondrial ribosome); type: biochemical; details: for Selectivity Mit 13: Mit13 over wt bacterial ribosome; for IC50 Mit13: in vitro translation inhibition, Mit13 hybrid ribosome
# [7] = test system: Cyt14 hybrid ribosome (decoding A site of the human cytoplasmic ribosome); type: biochemical; details: for Selectivity Cyt14: Cyt14 over wt bacterial ribosome; for IC50 Cyt 14: in vitro translation inhibition, Cyt14 hybrid ribosome
# P. aeruginosa = test: Antibacterial activity against reference strains: P. aeruginosa; details: for Antibacterial activity (MIC) P. aeruginosa AG031: strain AG031 carries the APH(3’) gene
# E. cloacae = test: Antibacterial activity against reference strains: E. cloacae; type: cell-based; details: strain AG290
# E coli = test: Neutropenic mouse thigh infection model; type: in vivo; details: dose 3 mg.kg^−1
# [8] = test system: E coli 70S ribosome (helix 44, A1408); test: Quantitative dimethyl sulfate footprinting of the 70S ribosome; type: binding; details: read-out: apparent Kd; DMS footprinting, % protection of N1 of A1408, E. coli 70S ribosome
# [9] = test system: E. coli clinical isolates carrying two or more resistance determinants; test: Activity against E. coli clinical isolates with multiple resistance determinants; type: cell-based
# [10] = test system: Mycobacterium tuberculosis clinical isolates; test: microbe, parasite or virus in culture; type: cell-based; details: clinical isolates
# Mycobacterium abscessus = test: microbe, parasite or virus in culture; type: cell-based
# E. coli [11] = test: Neutropenic mouse E. coli septicemia model; type: in vivo
# [12] = test system: wild-type E. cloacae clinical isolates; test: MIC distribution, clinical wild-type E. cloacae isolates; type: cell-based; details: panel of wild-type clinical isolates
# [13] = test system: E. cloacae clinical isolates carrying two or more resistance determinants; type: cell-based; details: AAC(6’)
# [14] = test system: wild-type K. pneumoniae clinical isolates; test: MIC distribution, clinical wild-type K. pneumoniae isolates; type: cell-based; details: panel of wild-type clinical isolates
# [15] = test system: wild-type E. coli clinical isolates; test: MIC distribution, clinical wild-type E. coli isolates; type: cell-based; details: panel of wild-type clinical isolates
# [16] = test system: Mycobacterium smegmatis wild type; test: Antibacterial activity, wild-type M. smegmatis
# [17] = test system: K. pneumoniae clinical isolates carrying two or more resistance determinants; type: cell-based; details: AAC(3), AAC(6’)
smiles,measurement,setting,value
"CCSC1C(CO)OC(OC2C(N)CC(N)C(O)C2OC2OC(CO)C(OC3OC(CN)C(O)C(O)C3N)C2O)C(N)C1O (centres unmarked) [Compound 4, 4’-deoxy-4’-ethylthioparomomycin]",loss of cell viability,[1],only minimal loss of cell viability
same,Antibacterial activity (MIC) E. coli AG001,E. coli [2],8 µg/mL
same,Antibacterial activity (MIC) E. coli AG003,E. coli [2],8 µg/mL
same,Antibacterial activity (MIC) A. baumannii AG225,A. baumannii,4 µg/mL
same,Antibacterial activity (MIC) MRSA AG038,MRSA,4 µg/mL
same,Antibacterial activity (MIC) MRSA AG042,MRSA,2 to 4 µg/mL
same,Activity (MIC) E. coli AG006,[3],1 to 2 µg/mL
same,Activity (MIC) E. coli AG007,[3],4 µg/mL
same,Activity (MIC) E. coli AG008,[3],1 µg/mL
same,Activity (MIC) E. coli AG009,[3],4 µg/mL
same,Activity (MIC) E. coli AG036,[3],1 to 2 µg/mL
same,Activity (MIC) E. coli AG103,[3],8 µg/mL
same,Activity (MIC) E. coli AG105,[3],2 to 4 µg/mL
same,Activity (MIC) E. coli AG166,[3],4 µg/mL
same,Antibacterial activity (MIC) K. pneumoniae AG215,K. pneumoniae,2 µg/mL
same,Selectivity A1555G,[4],1150
same,IC50 A1555G,[4],46 µg/mL
same,IC50 wt,[5],0.04 µg/mL
same,Selectivity Mit 13,[6],2775
same,IC50 Mit13,[6],111 µg/mL
same,Selectivity Cyt14,[7],1500
same,IC50 Cyt 14,[7],60 µg/mL
same,Antibacterial activity (MIC) P. aeruginosa AG031,P. aeruginosa,32 µg/mL
same,Antibacterial activity (MIC) E. cloacae AG290,E. cloacae,2 to 4 µg/mL
"CCC[C@H]1[C@H](O)[C@@H](N)[C@@H](O[C@H]2[C@H](O[C@@H]3O[C@H](CO)[C@@H](O[C@H]4O[C@@H](CN)[C@@H](O)[C@H](O)[C@H]4N)[C@H]3O)[C@@H](O)[C@H](N)C[C@@H]2N)O[C@@H]1CO [Compound 5, 4’-deoxy-4’-propylparomomycin]",loss of cell viability,[1],only minimal loss of cell viability
same,Antibacterial activity (MIC) E. coli AG001,E. coli [2],1 to 2 µg/mL
same,Antibacterial activity (MIC) E. coli AG003,E. coli [2],1 to 2 µg/mL
same,log reduction in colony-forming units (CFUs) compared to vehicle,E coli,1.5 log
same,Kd,[8],340 ± 50 nM
same,Activity (MIC) E. coli isolate 201430298,"[9]; AAC(3), AAC(6’)",1 µg/mL
same,Activity (MIC) E. coli isolate 2014251408,"[9]; AAC(3), AAC(6’)",2 µg/mL
same,Activity (MIC) E. coli isolate 2014405344,"[9]; AAC(3), APH(3’), RmtB",4 µg/mL
same,Activity (MIC) E. coli isolate 201441114,"[9]; AAC(6’), ANT(2’’)",1 µg/mL
same,MIC M. tuberculosis clinical isolates,[10],1 µg/mL
same,Antibacterial activity (MIC) A. baumannii AG225,A. baumannii,2 µg/mL
same,"MIC M. abscessus, AAC(2’) gene deleted",Mycobacterium abscessus; AAC(2’) gene deleted,4 µg/mL and 2 µg/mL
same,MIC M. abscessus,Mycobacterium abscessus; AAC(2’) gene present,4 µg/mL
same,Antibacterial activity (MIC) MRSA AG038,MRSA,1 to 2 µg/mL
same,Antibacterial activity (MIC) MRSA AG042,MRSA,2 µg/mL
same,Activity (MIC) E. coli AG006,[3],0.5 to 1 µg/mL
same,Activity (MIC) E. coli AG007,[3],2 µg/mL
same,Activity (MIC) E. coli AG008,[3],0.5 to 1 µg/mL
same,Activity (MIC) E. coli AG009,[3],1 to 2 µg/mL
same,Activity (MIC) E. coli AG036,[3],1 µg/mL
same,Activity (MIC) E. coli AG103,[3],2 µg/mL
same,Activity (MIC) E. coli AG105,[3],1 µg/mL
same,Activity (MIC) E. coli AG166,[3],1 to 2 µg/mL
same,Antibacterial activity (MIC) K. pneumoniae AG215,K. pneumoniae,0.5 µg/mL
same,"reduction of bacterial burden in the blood, more than the parent paromomycin at the same dose level",E. coli [11]; 4 mg.kg^−1,1 log
same,reduction of bacterial burden in the blood,E. coli [11]; 4 mg.kg^−1 dose,approximately 1.5 log units
same,MIC90 E. cloacae,[12],1 µg/mL
same,Selectivity A1555G,[4],1733
same,IC50 A1555G,[4],52 µg/mL
same,IC50 wt,[5],0.03 µg/mL
same,Activity (MIC) E. cloacae isolate 201435487,[13]; AAC(3),0.5 µg/mL
same,Activity (MIC) E. cloacae isolate 201333207,"[13]; AAC(3), APH(3’)",0.5 µg/mL
same,Activity (MIC) E. cloacae isolate 201385168,"[13]; AAC(3), RmtC",1 µg/mL
same,Activity (MIC) E. cloacae isolate 201430601,[13]; ANT(2’’),0.5 µg/mL
same,Selectivity Mit 13,[6],5567
same,IC50 Mit13,[6],167 µg/mL
same,MIC90 K. pneumoniae,[14],1 µg/mL
same,Selectivity Cyt14,[7],2133
same,IC50 Cyt 14,[7],64 µg/mL
same,MIC90 E. coli,[15],2 µg/mL
same,Antibacterial activity (MIC) Wild-type M. smegmatis,[16],0.16 µg/mL
same,Antibacterial activity (MIC) P. aeruginosa AG031,P. aeruginosa,8 µg/mL
same,Antibacterial activity (MIC) P. aeruginosa AG220,P. aeruginosa; strain AG220 carries the APH(3’) gene,2 to 4 µg/mL
same,Activity (MIC) K. pneumoniae isolate 201440494,[17],0.5 µg/mL
same,Activity (MIC) K. pneumoniae isolate 2014310114,[17],0.25 µg/mL
same,Activity (MIC) K. pneumoniae isolate 2014310108,[17]; RmtB,1 µg/mL
same,Antibacterial activity (MIC) E. cloacae AG290,E. cloacae,0.5 to 1 µg/mL
